{"source": "patent US20150051246A1", "about": "(priority 2013, published 2015)", "key": {"rats [1]": {"test_system": "rats", "settings": "cited from earlier work"}, "rats [2]": {"test_system": "rats", "settings": "cited from earlier work", "remark": "listed apart in the source"}, "male Wistar rats": {"test_system": "male Wistar rats", "test": "Object recognition task (ORT), scopolamine induced memory deficit", "assay_type": "in vivo", "experimental": "Memory acquisition processes are investigated using the object recognition test (ORT).\nTwenty four 3-4 month old male Wistar rats (Charles River, Sulzfeld, Germany) were used for the study. All animals were housed individually in standard green line Tecniplast IVC cages on stardust bedding. The animals were housed on a reversed 12/12 h light/dark cycle (lights on from 07:00 pm to 07:00 am) and had free access to food and water. The rats were housed and tested in the same room. A radio, playing softly, provided background noise in the room. All testing was performed between 09:00 am and 06:00 pm.\nDrugs were prepared daily, except as indicated otherwise. Roflumilast (Takeda, Konstanz, Germany, MW 403.21) was dissolved in 98% methylcellulose solution (0.5% methylcellulose) and 2% Tween 80. Roflumilast in doses of 0 (vehicle), 0.0001, 0.0003, 0.001, 0.003, 0.01 and 0.03 mg/kg was administered intraperitonally (ip, injection volume 1 ml/kg). […] All compounds were administered 30 min before T1.\nThe testing order of conditions was determined randomly. The experimenter was blind of testing protocol. A within design was used and all treatment conditions were balanced over rats. The ORT was performed as described elsewhere (Ennaceur and Delaceur, 1988, Behav Brain Res, Vol 31, pp 47-59; Akkerman et al; 2012, Behav Brain Res, Vol 232, pp 335-347). The apparatus consisted of a circular arena, 83 cm in diameter. The back half of the 40 cm high wall was made of grey PVC and the front was made of transparent PVC. Fluorescent red tubes and a light bulb provided a constant illumination of about 20 lux on the floor of the apparatus. The light intensity was equal in the different parts of the apparatus.\nTwo objects were placed in symmetrical positions at the mid-line between the gray and transparent halves of the arena, about ten centimeters away from wall. Four different sets of objects were available: 1) a standard 1 L brown transparent glass bottle (diameter 10 cm, height 22 cm) filled with water, 2) a metal cube (10.0×5.0×7.5 cm) with two holes (diameter 1.9 cm), 3) a cone consisting of a gray PVC base (maximal diameter 18 cm) with a collar on top made of brass (total height 16 cm), and 4) an aluminum cube with a tapering top (13.0×8.0×8.0 cm). Objects were presented to the animals in a balanced manner to avoid object or place biases. Rats were unable to displace the objects.\nA test session comprised two trials, each with durations of 3 min. During the learning trial (T1) the apparatus contains two identical objects (object a1 and a2). Rats were always introduced into the apparatus with their nose towards the transparent wall segment (i.e. facing outwards to the front of the arena). Subsequently, rats were put back in its home cage for a 1 h interval. After the retention interval, rats were put back into the arena for the […] (T2). In T2, the two objects from T1 were replaced by one identical copy (a3) and a different novel object (b). The times spent in exploring each object during T1 and T2 were recorded manually on a personal computer.\nExploration was defined in the following manner: directing the nose to the object at a distance of no more than 2 cm and/or touching the object with the nose. Sitting on the object was not considered as exploratory behavior. In order to avoid the presence of olfactory cues, the objects were thoroughly cleaned with a 70% ethanol solution before each trial.\nPrior to compound testing, the animals were handled for 5 min on 2 consecutive days and allowed to explore the ORT arena, also for 5 min. Subsequently, the animals were accustomed to the complete ORT testing procedure without receiving any injection.\nThe readout parameters of the object recognition task are the times that rats spent on exploring each object during T1 and T2. The exploration time (in seconds) of each object during T1 are presented as “a1” and “a2”."}, "[3]": {"assay_type": "in vivo, human", "settings": "plasma, single dose", "description": "An interim analysis has been performed based on the data of 9 subjects of the Impaired Elderly group and 4 subjects of the Healthy Elderly group. For this purpose, cognitive battery test scores (VLT, SMT, Stroop task and BL-VAS) and concentrations of roflumilast and roflumilast-N-oxide in plasma have been analysed and summarized by dose over each scheduled sampling time using descriptive statistics."}, "phosphodiesterase 4": {"test_system": "phosphodiesterase 4", "settings": "in humans after roflumilast; cited from earlier work"}, "[4]": {"assay_type": "in vivo, human", "settings": "once a day (24 h) repeated dosing", "experimental": "In the above-indicated clinical trial roflumilast was administered once in a single oral dose of 100 mcg, 300 mcg or 1000 mcg. Due to the pharmacokinetics of roflumilast and its metabolite roflumilast-N-oxide and the median plasma half-life of these compounds the steady state plasma concentration levels in a once a day (24 h) repeated dosing regimen of roflumilast/roflumilast-N-oxide is about two-fold compared to the plasma concentration levels following a once a day single dosing."}, "male C57BL/6NCrl mice": {"test_system": "male C57BL/6NCrl mice", "test": "Object Location Task (OLT), spatial memory, 24 h retention interval", "assay_type": "in vivo", "settings": "for d2 index, discrimination index for T2: 3 h after T1, 24 h interval", "description": "The objective of this study was to evaluate the cognitive improvement effects of Roflumilast on spatial memory employing Object Location Task (OLT) in male C57BL/6NCrl mice. Roflumilast was compared with data of the already established PDE4 inhibitor Rolipram in the same model.\nTwenty-four 7 month-old male C57BL/6NCrl mice (Charles River, L'Arbresle, France) were used (average body weights: 27.6 g). The animals were kept under a 12/12-hour light/dark cycle (lights on from 07.00 pm to 07.00 am) with free access to food and water. All testing was done between 09.00 am and maximally 06.00 pm.\nBoth rolipram (Sigma-Aldrich St. Louis, USA; MW 275.34) and roflumilast (Biocrea, Radebeul, Germany; MW 403.21) were dissolved in dimethylsulfoxide (DMSO) and kept at 4° C.; this stock solution was used for further dilutions in 0.5% methylcellulose. Each of rolipram and roflumilast is used in form of its free base. All injected solutions consisted of 0.5% methylcellulose with a fixed DMSO percentages (1.2%) (vehicle).\nFor the Object Location Task (OLT), doses of 0.01 mg/kg, 0.03 mg/kg and 0.1 mg/kg of Rolipram or Roflumilast or vehicle were administered subcutaneously (s.c.). Based on previous findings, PDE4 inhibitor single administration was performed 3 hours after the first trial as this has an optimum effect on object memory performance. The injection volume was 5 μl/g.\nThe OLT apparatus consisted of a circular arena, 40 cm in diameter. Half of the 40 cm transparent polyvinyl chloride wall was covered from the outside with white paper. Two objects were placed symmetrically about 10 cm away from the wall on the separation line, between the transparent and covered side of the arena. Four different sets of objects were available: (1) a cone made of brass (maximal diameter 6 cm and total height 3.8 cm), (2) a transparent glass bottle (diameter 2.7 cm, height 8.5 cm) filled with sand and water, (3) a massive metal cube (2.5 cm×5 cm×7.5 cm) with two holes (diameter 1.5 cm), and (4) a massive aluminum cube with a tapering top (4.5 cm×4.5 cm×8.5 cm).\nA testing session comprised two trials of 4 minutes. Before each trial, mice were placed in an empty Makrolon cage (incubation cage) for the same amount of time as the trial (4 min). During the first trial (T1), two identical objects were placed symmetrically about 10 cm away from the wall on the separation line between the transparent and covered side of the arena. After the first exploration period of 4 min, the mouse was put back in its home cage. Mice then received treatment at 3 hours post T1. Subsequently, after a predetermined delay interval (24 h), the mouse was placed in the apparatus for the second trial of 4 min (T2). Two identical objects as in T1 were used; one object was placed in the previously used position, whereas the other was placed in a novel position. The novel position of the object could either be a fixed distance towards the front or a fixed distance towards the back of the arena for both objects. The times spent exploring each object during T1 and T2 were recorded manually using a personal computer. All objects and locations were used in a balanced manner to exclude possible object and/or location preferences. To avoid olfactory cues, the objects were thoroughly cleaned with 70% ethanol after each trial. The testing order of conditions was determined randomly.\nThe measurements reflected the time spent by the mice in exploring each object during T1 and T2. The time spent in exploring the two identical samples in T1 were represented by ‘a1’ and ‘a2’, respectively. The time spent in exploring the sample and the new object in T2 were represented by ‘a’ and ‘b’, respectively. From these exploration times the following variables were calculated: e1, e2, and d2 (Table 1). The d2 index is a relative measure of discrimination corrected for exploratory activity. […]"}, "[5]": {"test_system": "xylazine/ketamine induced α2-adrenergic receptor-mediated anesthesia", "settings": "in vivo, 0.3 mg/kg", "description": "Since emesis is a typical side-effect of PDE4 inhibitors the emetic potential of roflumilast and rolipram was investigated in parallel using the xylazine/ketamine induced α2-adrenergic receptor-mediated anesthesia test. The results confirmed that the two phosphodiesterase 4 inhibitors have different effects on emesis."}}, "data": [{"smiles": "O=C(NC1CC1)c1cn(-c2cccc(-c3ccc([C@@H]4C[C@H]4C(=O)O)c(F)c3)c2)c2ncccc2c1=O", "note": "[MK-0952]", "values": [{"measurement": "novel object recognition (in words)", "setting": "rats [1]", "value": "improvement of novel object recognition"}, {"measurement": "Water Maze DMTP test (in words)", "setting": "rats [2]", "value": "improvement"}]}, {"smiles": "COc1cc2c(cc1OC)C(=O)C(CC1CCN(Cc3ccccc3)CC1)C2.Cl", "note": "(racemic) [donepezil, (±)-2,3-dihydro-5,6-dimethoxy2-[[1-(phenylmethyl)-4-piperidinyl]methyl]-1H-inden-1-one]", "values": [{"measurement": "d2", "setting": "male Wistar rats; scopolamine 0.1 mg/kg + donepezil 0.1 mg/kg p.o.", "value": 0.04}]}, {"smiles": "O=C(Nc1c(Cl)c[n+]([O-])cc1Cl)c1ccc(OC(F)F)c(OCC2CC2)c1", "note": "[roflumilast-N-oxide, 3-cyclopropylmethoxy-4-difluoromethoxy-N-(3,5-dichloro-1-oxypyrid-4-yl)benzamide]", "values": [{"measurement": "exposure", "setting": "[3]", "value": "consistent with those previously reported"}, {"measurement": "share of overall phosphodiesterase 4 inhibition", "setting": "phosphodiesterase 4", "value": "more than 90%"}, {"measurement": "steady state plasma concentration levels compared to single dosing", "setting": "[4]", "value": "about two-fold"}]}, {"smiles": "COc1ccc(C2CNC(=O)C2)cc1OC1CCCC1", "note": "(stereo not shown) [rolipram]", "values": [{"measurement": "d2 index, discrimination index for T2", "setting": "male C57BL/6NCrl mice; 0.01 mg/kg s.c.", "value": 0.08}, {"measurement": "d2 index, discrimination index for T2", "setting": "male C57BL/6NCrl mice; 0.03 mg/kg s.c.", "value": 0.13}, {"measurement": "d2 index, discrimination index for T2", "setting": "male C57BL/6NCrl mice; 0.1 mg/kg s.c.", "value": 0.07}, {"measurement": "dose effective in improving spatial memory", "setting": "male C57BL/6NCrl mice; s.c.", "value": 0.03, "unit": "mg/kg"}, {"measurement": "emetic potential", "setting": "[5]", "value": "strong emetic potential"}]}, {"smiles": "CN1[C@@H]2C[C@@H](OC(=O)[C@H](CO)c3ccccc3)C[C@H]1[C@@H]1O[C@@H]12", "note": "[scopolamine]", "values": [{"measurement": "d2", "setting": "male Wistar rats; scopolamine 0.1 mg/kg + veh + veh, rof + dpz study", "value": "−0.04"}, {"measurement": "d2", "setting": "male Wistar rats; scopolamine 0.1 mg/kg ip + vehicle, dose response study", "value": 0.01}]}]}
